Data as given in article PMC7104248, “Discovery of Taniborbactam (VNRX-5133): A Broad-Spectrum Serine- and Metallo-β-lactamase Inhibitor for Carbapenem-Resistant Bacterial Infections” (Journal of Medicinal Chemistry, 2019).
Converted amounts (≈) assume the structure as drawn. Where two headings read alike, the source gives them in different places.

Columns and labels:
L1 = system: L1; set-up: method as in PMID 31454231; conditions: cited from earlier work
S. aureus 29213 (W/T) = test: intrinsic antibacterial activity, MIC; assay type: cell-based; conditions: Staphylococcus aureus
[1] = system: E. aerogenes 188548 (AmpC); test: intrinsic antibacterial activity, MIC; assay type: cell-based; conditions: Klebsiella aerogenes
OXA-48 = OXA-48 (Klebsiella pneumoniae, UniProt Q6XEC0); conditions: read-out: IC50 OXA-48, literature value in parentheses; cited from earlier work
S. aureus 33591 (MRSA) = test: intrinsic antibacterial activity, MIC; assay type: cell-based; conditions: Staphylococcus aureus
[2] = system: K. pneumoniae CI 09 (W/T); test: intrinsic antibacterial activity, MIC; assay type: cell-based; conditions: Klebsiella pneumoniae
[3] = system: 14 Gram-negative pathogens expressing class B enzymes (VIM-1, VIM-2, VIM-4, NDM-1); assay type: cell-based; conditions: 14 MBL-producing strains
[4] = preclinical toxicity evaluation
Source text: NCT03840148 at ClinicalTrials.gov).

E. coli 25922 (W/T) = test: intrinsic antibacterial activity, MIC; assay type: cell-based; conditions: Escherichia coli
cytochrome P450 2D6 = cytochrome P450 2D6 (Homo sapiens, UniProt P10635); test: selectivity panel at 100 μM; assay type: in vitro ADME
cytochrome P450 2D6, sequence (P10635 whole entry): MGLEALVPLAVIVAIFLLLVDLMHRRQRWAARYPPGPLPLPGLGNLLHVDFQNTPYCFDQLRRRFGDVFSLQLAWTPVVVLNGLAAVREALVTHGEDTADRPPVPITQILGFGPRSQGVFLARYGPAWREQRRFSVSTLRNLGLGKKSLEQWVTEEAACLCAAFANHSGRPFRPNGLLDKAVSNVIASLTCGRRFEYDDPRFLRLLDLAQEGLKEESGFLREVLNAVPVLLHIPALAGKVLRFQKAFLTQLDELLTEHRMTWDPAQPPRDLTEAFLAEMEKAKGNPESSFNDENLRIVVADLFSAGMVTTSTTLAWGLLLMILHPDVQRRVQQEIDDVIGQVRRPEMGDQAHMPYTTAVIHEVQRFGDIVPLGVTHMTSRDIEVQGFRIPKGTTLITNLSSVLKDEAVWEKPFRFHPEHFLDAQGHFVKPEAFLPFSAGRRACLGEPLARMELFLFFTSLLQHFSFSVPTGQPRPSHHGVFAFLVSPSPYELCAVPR
Source text: (§1) The panel included serine proteases (i.e., cathepsin G, chymotrypsin, Factor Xa, trypsin, and neutrophil elastase 2), metalloproteinases (MMP-1, -2, -3, and -9), cytochrome P450s (1A2, 2C9, 2C19, 2D6, and 3A4), and the hERG potassium channel.

cytochrome P450 2C19 = cytochrome P450 2C19 (Homo sapiens, UniProt P33261); test: selectivity panel at 100 μM; assay type: in vitro ADME
cytochrome P450 2C19, sequence (P33261 whole entry): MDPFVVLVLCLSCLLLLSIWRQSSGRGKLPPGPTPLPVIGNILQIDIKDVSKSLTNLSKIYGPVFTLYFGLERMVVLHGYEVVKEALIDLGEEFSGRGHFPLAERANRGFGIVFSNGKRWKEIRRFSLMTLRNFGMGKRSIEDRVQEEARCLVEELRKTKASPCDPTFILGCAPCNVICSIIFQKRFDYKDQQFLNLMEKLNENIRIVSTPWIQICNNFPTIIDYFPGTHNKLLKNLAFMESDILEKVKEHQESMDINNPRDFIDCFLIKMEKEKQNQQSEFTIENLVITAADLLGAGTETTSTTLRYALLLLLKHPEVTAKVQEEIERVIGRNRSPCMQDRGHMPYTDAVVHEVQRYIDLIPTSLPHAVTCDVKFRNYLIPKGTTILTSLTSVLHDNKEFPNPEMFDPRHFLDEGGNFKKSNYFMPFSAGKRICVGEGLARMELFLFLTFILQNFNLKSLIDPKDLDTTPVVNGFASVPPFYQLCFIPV
Source text: as §1

cytochrome P450 1A2 = cytochrome P450 1A2 (Homo sapiens, UniProt P05177); test: selectivity panel at 100 μM; assay type: in vitro ADME
cytochrome P450 1A2, sequence (P05177 whole entry): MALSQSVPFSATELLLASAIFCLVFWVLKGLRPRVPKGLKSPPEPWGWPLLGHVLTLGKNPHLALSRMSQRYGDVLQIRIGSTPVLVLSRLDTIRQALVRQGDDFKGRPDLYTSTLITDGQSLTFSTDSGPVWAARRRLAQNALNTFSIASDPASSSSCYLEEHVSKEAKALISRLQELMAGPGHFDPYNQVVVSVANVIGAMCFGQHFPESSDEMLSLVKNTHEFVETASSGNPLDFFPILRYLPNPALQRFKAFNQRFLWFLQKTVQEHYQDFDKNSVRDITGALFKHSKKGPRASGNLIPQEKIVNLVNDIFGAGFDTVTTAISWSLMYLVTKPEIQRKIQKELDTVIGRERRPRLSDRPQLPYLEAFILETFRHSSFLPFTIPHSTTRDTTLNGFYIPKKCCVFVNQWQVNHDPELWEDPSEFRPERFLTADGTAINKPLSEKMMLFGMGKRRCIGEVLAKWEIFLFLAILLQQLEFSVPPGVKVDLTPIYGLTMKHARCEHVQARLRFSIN
Source text: as §1

cytochrome P450 2C9 = cytochrome P450 2C9 (Homo sapiens, UniProt P11712); test: selectivity panel at 100 μM; assay type: in vitro ADME
cytochrome P450 2C9, sequence (P11712 whole entry): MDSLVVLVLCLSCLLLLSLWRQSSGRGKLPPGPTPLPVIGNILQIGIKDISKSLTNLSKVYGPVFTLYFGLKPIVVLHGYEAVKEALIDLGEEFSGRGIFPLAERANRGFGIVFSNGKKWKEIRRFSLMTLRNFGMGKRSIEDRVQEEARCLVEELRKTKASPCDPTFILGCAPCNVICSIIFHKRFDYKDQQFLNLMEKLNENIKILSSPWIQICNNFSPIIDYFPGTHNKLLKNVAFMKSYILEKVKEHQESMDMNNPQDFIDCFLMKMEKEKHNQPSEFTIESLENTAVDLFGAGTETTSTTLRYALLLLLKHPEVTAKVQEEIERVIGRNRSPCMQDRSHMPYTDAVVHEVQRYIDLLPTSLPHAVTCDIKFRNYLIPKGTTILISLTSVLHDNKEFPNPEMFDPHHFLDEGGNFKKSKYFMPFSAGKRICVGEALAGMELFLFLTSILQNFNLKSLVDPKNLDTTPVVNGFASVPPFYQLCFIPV
Source text: as §1

cytochrome P450 3A4 = cytochrome P450 3A4 (Homo sapiens, UniProt P08684); test: selectivity panel at 100 μM; assay type: in vitro ADME
cytochrome P450 3A4, sequence (P08684 whole entry): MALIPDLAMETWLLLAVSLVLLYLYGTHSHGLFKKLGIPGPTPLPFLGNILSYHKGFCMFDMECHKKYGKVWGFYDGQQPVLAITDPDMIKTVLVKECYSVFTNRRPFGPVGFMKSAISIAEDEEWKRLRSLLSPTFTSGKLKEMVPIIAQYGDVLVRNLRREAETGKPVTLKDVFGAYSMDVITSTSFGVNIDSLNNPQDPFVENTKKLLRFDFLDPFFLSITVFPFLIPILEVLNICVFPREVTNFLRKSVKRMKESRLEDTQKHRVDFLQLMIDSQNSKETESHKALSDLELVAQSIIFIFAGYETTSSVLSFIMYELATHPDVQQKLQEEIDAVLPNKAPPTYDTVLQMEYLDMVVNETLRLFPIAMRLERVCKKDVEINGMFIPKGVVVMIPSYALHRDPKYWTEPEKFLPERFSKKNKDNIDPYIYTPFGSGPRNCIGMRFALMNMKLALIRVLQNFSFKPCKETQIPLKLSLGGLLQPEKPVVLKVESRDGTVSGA
Source text: as §1

trypsin = test: selectivity panel at 100 μM; assay type: biochemical, human
Source text: as §1

chymotrypsin = test: selectivity panel at 100 μM; assay type: biochemical, human
Source text: as §1

CphA = conditions: read-out: IC50 subclass B2 MBL CphA; cited from earlier work
[5] = system: K. pneumoniae A-1797 (KPC-2, VIM-4, CMY-4); test: microbe, parasite or virus in culture; assay type: cell-based; conditions: Klebsiella pneumoniae
cathepsin G = cathepsin G (Homo sapiens, UniProt P08311); test: selectivity panel at 100 μM; assay type: biochemical
cathepsin G, sequence (P08311 21-255): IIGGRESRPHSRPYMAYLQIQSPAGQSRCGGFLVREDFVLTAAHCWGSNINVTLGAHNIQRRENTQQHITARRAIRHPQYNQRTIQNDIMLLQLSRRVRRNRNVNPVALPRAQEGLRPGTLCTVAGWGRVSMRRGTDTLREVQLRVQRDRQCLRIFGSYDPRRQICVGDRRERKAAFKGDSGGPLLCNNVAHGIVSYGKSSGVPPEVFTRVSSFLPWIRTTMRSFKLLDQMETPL
Source text: as §1

MMP-3 = MMP-3 (Homo sapiens, UniProt P08254); test: selectivity panel at 100 μM; assay type: biochemical
Source text: as §1

Factor Xa = biological target: T1, Factor Xa (Homo sapiens, UniProt P00742); test: selectivity panel at 100 μM; assay type: biochemical
T1 construct: serine proteases (i.e., cathepsin G, chymotrypsin, Factor Xa, trypsin, and neutrophil elastase 2)
Source text: as §1

MMP-2 = MMP-2 (Homo sapiens, UniProt P08253); test: selectivity panel at 100 μM; assay type: biochemical
Source text: as §1

neutrophil elastase 2 = neutrophil elastase 2 (Homo sapiens, UniProt P08246); test: selectivity panel at 100 μM; assay type: biochemical
neutrophil elastase 2, sequence (P08246 30-267): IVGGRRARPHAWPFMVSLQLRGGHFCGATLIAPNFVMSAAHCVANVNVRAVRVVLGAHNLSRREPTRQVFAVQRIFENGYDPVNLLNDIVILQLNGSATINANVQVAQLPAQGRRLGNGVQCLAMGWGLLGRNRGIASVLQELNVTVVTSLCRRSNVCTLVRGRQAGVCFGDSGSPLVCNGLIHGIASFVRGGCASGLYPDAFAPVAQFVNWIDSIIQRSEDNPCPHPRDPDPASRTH
Source text: as §1

MMP-9 = MMP-9 (Homo sapiens, UniProt P14780); test: selectivity panel at 100 μM; assay type: biochemical
Source text: as §1

MMP-1 = MMP-1 (Homo sapiens, UniProt P03956); test: selectivity panel at 100 μM; assay type: biochemical
MMP-1, sequence (P03956 100-469): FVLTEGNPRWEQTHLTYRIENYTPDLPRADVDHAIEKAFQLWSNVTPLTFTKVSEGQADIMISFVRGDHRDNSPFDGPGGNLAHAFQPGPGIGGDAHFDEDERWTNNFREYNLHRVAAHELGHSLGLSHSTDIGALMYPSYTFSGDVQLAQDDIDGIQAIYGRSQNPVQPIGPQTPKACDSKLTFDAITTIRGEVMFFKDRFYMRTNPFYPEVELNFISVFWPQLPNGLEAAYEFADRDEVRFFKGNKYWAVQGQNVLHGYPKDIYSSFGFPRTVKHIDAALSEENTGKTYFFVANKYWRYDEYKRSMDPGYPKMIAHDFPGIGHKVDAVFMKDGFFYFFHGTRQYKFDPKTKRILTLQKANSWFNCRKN
Source text: as §1

[6] = system: K. pneumoniae UMM (SHV5, KPC-2, TEM-1); test: intrinsic antibacterial activity, MIC; assay type: cell-based; conditions: Klebsiella pneumoniae
[7] = system: E. cloacae 144200 (p99 AmpC); test: intrinsic antibacterial activity, MIC; assay type: cell-based; conditions: Enterobacter cloacae
IMP-1 [8] = biological target: T2, IMP-1 (Serratia marcescens, UniProt P52699); conditions: read-out: IC50 IMP-1, literature value in parentheses; cited from earlier work
T2 sequence (P52699 19-246 limits assumed): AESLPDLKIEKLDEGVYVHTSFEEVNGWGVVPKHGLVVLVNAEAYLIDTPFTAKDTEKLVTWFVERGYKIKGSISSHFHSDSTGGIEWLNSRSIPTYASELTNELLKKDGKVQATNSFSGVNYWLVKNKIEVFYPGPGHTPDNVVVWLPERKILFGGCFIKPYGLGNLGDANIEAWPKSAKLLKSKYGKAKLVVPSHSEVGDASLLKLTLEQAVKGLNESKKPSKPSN

[9] = system: panel of 50 human enzymes and receptors; test: selectivity panel at 100 μM
Source text: as §1

hERG potassium channel = hERG potassium channel (Homo sapiens, UniProt Q12809); test: selectivity panel at 100 μM
hERG potassium channel, sequence (Q12809 whole entry): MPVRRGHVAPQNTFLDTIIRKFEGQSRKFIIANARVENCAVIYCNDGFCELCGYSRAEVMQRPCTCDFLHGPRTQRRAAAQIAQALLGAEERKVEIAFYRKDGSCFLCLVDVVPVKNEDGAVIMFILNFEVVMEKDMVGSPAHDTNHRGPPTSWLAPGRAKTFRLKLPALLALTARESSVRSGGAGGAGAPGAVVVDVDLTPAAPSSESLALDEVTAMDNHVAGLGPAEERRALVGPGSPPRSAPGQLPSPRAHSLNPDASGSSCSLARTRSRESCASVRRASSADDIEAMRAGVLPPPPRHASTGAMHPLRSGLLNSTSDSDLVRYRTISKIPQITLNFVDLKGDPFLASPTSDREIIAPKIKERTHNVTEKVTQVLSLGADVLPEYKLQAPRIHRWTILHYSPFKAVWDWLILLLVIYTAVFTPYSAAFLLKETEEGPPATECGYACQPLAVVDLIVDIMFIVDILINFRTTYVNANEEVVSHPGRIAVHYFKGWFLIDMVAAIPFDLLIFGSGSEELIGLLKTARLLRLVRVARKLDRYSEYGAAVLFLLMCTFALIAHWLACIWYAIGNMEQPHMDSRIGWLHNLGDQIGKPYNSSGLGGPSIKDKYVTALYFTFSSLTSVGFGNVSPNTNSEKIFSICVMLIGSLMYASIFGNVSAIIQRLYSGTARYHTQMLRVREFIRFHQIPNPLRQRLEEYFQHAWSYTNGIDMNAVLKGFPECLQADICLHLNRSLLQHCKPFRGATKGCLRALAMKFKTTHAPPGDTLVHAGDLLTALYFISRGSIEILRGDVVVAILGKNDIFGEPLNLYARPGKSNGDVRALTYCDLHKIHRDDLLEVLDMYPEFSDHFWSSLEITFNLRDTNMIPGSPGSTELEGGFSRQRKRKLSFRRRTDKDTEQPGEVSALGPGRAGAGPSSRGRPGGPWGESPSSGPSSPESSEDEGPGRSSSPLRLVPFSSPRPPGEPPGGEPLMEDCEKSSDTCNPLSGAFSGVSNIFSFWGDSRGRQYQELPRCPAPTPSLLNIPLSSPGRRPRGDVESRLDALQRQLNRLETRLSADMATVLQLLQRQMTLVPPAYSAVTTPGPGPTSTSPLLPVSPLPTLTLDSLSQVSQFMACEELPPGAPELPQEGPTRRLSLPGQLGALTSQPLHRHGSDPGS
Source text: as §1

[10] = system: K. pneumoniae 11978 (OXA-48); test: intrinsic antibacterial activity, MIC; assay type: cell-based; conditions: Klebsiella pneumoniae
[11] = system: E. coli J53 (SHV5, AmpC, TEM-1); test: intrinsic antibacterial activity, MIC; assay type: cell-based; conditions: Escherichia coli
[12] = system: P. aeruginosa Ps296 (AmpC, VIM-2, TEM-1); test: intrinsic antibacterial activity, MIC; assay type: cell-based; conditions: Pseudomonas aeruginosa
[13] = system: human primary renal proximal tubule cells; test: toxicity in renal proximal tubule cells; assay type: cell-based; conditions: tested up to 1000 μg/mL
[14] = system: P. aeruginosa 27853 (W/T); test: intrinsic antibacterial activity, MIC; assay type: cell-based; conditions: Pseudomonas aeruginosa
[15] = system: K. pneumoniae expressing KPC-2; test: broth microdilution MIC, meropenem potentiation; assay type: cell-based; conditions: Klebsiella pneumoniae, read-out: MIC of meropenem alone
[16] = system: K. pneumoniae expressing OXA-48; test: broth microdilution MIC, meropenem potentiation; assay type: cell-based; conditions: Klebsiella pneumoniae, read-out: MIC of meropenem alone
[17] = system: P. aeruginosa expressing VIM-2; test: broth microdilution MIC, meropenem potentiation; assay type: cell-based; conditions: Pseudomonas aeruginosa, read-out: MIC of meropenem alone
[18] = system: K. pneumoniae expressing KPC-2 and VIM-4; test: broth microdilution MIC, meropenem potentiation; assay type: cell-based; conditions: Klebsiella pneumoniae, read-out: MIC of meropenem alone
[19] = system: K. pneumoniae CDC-0066 (OXA-232, OXA-9, TEM-1A, CTX-M-15, OXA-1); test: MIC, rescue of β-lactams in MDR clinical isolates; assay type: cell-based; conditions: Klebsiella pneumoniae, read-out: PIP MIC
[20] = system: P. aeruginosa CDC-0356 (KPC-2, PDC-42); test: MIC, rescue of β-lactams in MDR clinical isolates; assay type: cell-based; conditions: Pseudomonas aeruginosa, read-out: PIP MIC
[21] = system: K. pneumoniae CDC-0361 (KPC-2, SHV-12, TEM-1); test: MIC, rescue of β-lactams in MDR clinical isolates; assay type: cell-based; conditions: Klebsiella pneumoniae, read-out: PIP MIC
[22] = system: K. pneumoniae ATCC BAA 1705 (KPC-2); test: MIC, rescue of β-lactams in MDR clinical isolates; assay type: cell-based; conditions: Klebsiella pneumoniae, BAA1705, read-out: PIP MIC
[23] = system: P. aeruginosa CDC-0457 (VIM); test: MIC, rescue of β-lactams in MDR clinical isolates; assay type: cell-based; conditions: Pseudomonas aeruginosa, read-out: PIP MIC
[24] = system: K. pneumoniae CDC-0040 (VIM-27, CTX-M-15, SHV-11, OXA-1); test: MIC, rescue of β-lactams in MDR clinical isolates; assay type: cell-based; conditions: Klebsiella pneumoniae, read-out: PIP MIC
E. coli CDC-0452 (NDM) = test: MIC, rescue of β-lactams in MDR clinical isolates; assay type: cell-based; conditions: Escherichia coli, read-out: PIP MIC
[25] = system: E. coli CDC-0055 (NDM-1, CMY-6, OXA-1); test: MIC, rescue of β-lactams in MDR clinical isolates; assay type: cell-based; conditions: Escherichia coli, read-out: PIP MIC
NDM-1 = NDM-1 (Klebsiella pneumoniae, UniProt C7C422); test: biochemical
NDM-1, sequence (C7C422 29-270 limits assumed): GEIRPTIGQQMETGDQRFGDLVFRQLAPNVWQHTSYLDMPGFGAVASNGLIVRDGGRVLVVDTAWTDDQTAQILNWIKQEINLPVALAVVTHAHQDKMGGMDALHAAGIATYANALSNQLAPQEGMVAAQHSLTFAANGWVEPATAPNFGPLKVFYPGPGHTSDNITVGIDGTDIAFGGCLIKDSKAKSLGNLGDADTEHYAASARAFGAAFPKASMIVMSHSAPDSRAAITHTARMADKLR

IMP-1 [26] = biological target: T2, IMP-1; test: β-lactamase inhibition assay, nitrocefin substrate; assay type: biochemical

**Q.** For `NCCN[C@H]1CC[C@H](CC(=O)N[C@H]2Cc3cccc(C(=O)O)c3OB2O)CC1` [compound 20, (3R)-3-(2-{trans-4-[(2-Aminoethyl)amino]cyclohexyl}acetamido)-2-hydroxy-3,4-dihydro-2H-1,2-benzoxaborinine-8-carboxylic Acid], which “inhibition of subclass B3 MBL L1” value (L1) is on record?
**A.** did not inhibit

**Q.** And the MIC (S. aureus 29213 (W/T))?
**A.** > 128 µg/mL

**Q.** What about the MIC [1] of the same compound?
**A.** > 128 µg/mL

**Q.** What about the IC50 (OXA-48) of the same compound?
**A.** 0.54 µM

**Q.** What about the MIC (S. aureus 33591 (MRSA)) of the same compound?
**A.** > 128 µg/mL

**Q.** What about the MIC [2] of the same compound?
**A.** > 128 µg/mL

**Q.** And the “decrease in the MIC of cefepime on addition of BLI” value [3]?
**A.** ≥ 512 fold

**Q.** What about the “safety profile in the preclinical toxicity evaluation” value [4] of the same compound?
**A.** clean safety profile

**Q.** What about the MIC (E. coli 25922 (W/T)) of the same compound?
**A.** > 128 µg/mL

**Q.** What about the “activity against cytochrome P450 2D6” value (cytochrome P450 2D6) of the same compound?
**A.** no significant activity

**Q.** And the “activity against cytochrome P450 2C19” value (cytochrome P450 2C19)?
**A.** no significant activity

**Q.** What about the “activity against cytochrome P450 1A2” value (cytochrome P450 1A2) of the same compound?
**A.** no significant activity

**Q.** And the “activity against cytochrome P450 2C9” value (cytochrome P450 2C9)?
**A.** no significant activity

**Q.** What about the “activity against cytochrome P450 3A4” value (cytochrome P450 3A4) of the same compound?
**A.** no significant activity

**Q.** And the activity against trypsin (trypsin)?
**A.** no significant activity

**Q.** And the activity against chymotrypsin (chymotrypsin)?
**A.** no significant activity

**Q.** What about the IC50 (CphA) of the same compound?
**A.** ~2.51 µM

**Q.** And the MIC [5]?
**A.** > 128 µg/mL

**Q.** And the “activity against cathepsin G” value (cathepsin G)?
**A.** no significant activity

**Q.** What about the “activity against MMP-3” value (MMP-3) of the same compound?
**A.** no significant activity

**Q.** And the “activity against Factor Xa” value (Factor Xa)?
**A.** no significant activity

**Q.** What about the “activity against MMP-2” value (MMP-2) of the same compound?
**A.** no significant activity

**Q.** What about the “activity against neutrophil elastase 2” value (neutrophil elastase 2) of the same compound?
**A.** no significant activity

**Q.** And the “activity against MMP-9” value (MMP-9)?
**A.** no significant activity

**Q.** And the “activity against MMP-1” value (MMP-1)?
**A.** no significant activity

**Q.** What about the MIC [6] of the same compound?
**A.** > 128 µg/mL

**Q.** What about the MIC [7] of the same compound?
**A.** > 128 µg/mL

**Q.** And the IC50 (IMP-1 [8])?
**A.** 2.51 µM

**Q.** What about the “activity against panel of 50 human enzymes and receptors” value [9] of the same compound?
**A.** no significant activity

**Q.** What about the “activity against hERG potassium channel” value (hERG potassium channel) of the same compound?
**A.** no significant activity

**Q.** And the MIC [10]?
**A.** > 128 µg/mL

**Q.** And the MIC [11]?
**A.** > 128 µg/mL

**Q.** What about the MIC [12] of the same compound?
**A.** > 128 µg/mL

**Q.** And the “toxicity in human primary proximal tubule cells” value [13]?
**A.** No toxicity

**Q.** And the MIC [14]?
**A.** > 128 µg/mL

**Q.** With `C[C@@H](O)[C@H]1C(=O)N2C(C(=O)O)=C(S[C@@H]3CN[C@H](C(=O)N(C)C)C3)[C@H](C)[C@H]12` [meropenem] as the compound, how does the MIC [15] read?
**A.** ≥ 32 µg/mL

**Q.** What about the MIC [16] of the same compound?
**A.** ≥ 32 µg/mL

**Q.** And the MIC [17]?
**A.** ≥ 32 µg/mL

**Q.** What about the MIC [18] of the same compound?
**A.** ≥ 32 µg/mL

**Q.** What does the source list for `CCN1CCN(C(=O)N[C@@H](C(=O)N[C@@H]2C(=O)N3[C@@H]2SC(C)(C)[C@@H]3C(=O)O)c2ccccc2)C(=O)C1=O` [piperacillin]?
**A.** MIC [19]: > 128 µg/mL; MIC [20]: > 128 µg/mL; MIC [21]: > 128 µg/mL; MIC [22]: > 128 µg/mL; MIC [23]: 64 µg/mL (≈ 124 µM); MIC [24]: > 128 µg/mL; MIC (E. coli CDC-0452 (NDM)): > 128 µg/mL; MIC [25]: > 128 µg/mL

**Q.** For `C[C@]1(Cn2ccnn2)[C@H](C(=O)O)N2C(=O)C[C@H]2S1(=O)=O` [tazobactam], which IC50 (NDM-1) is on record?
**A.** > 100 µM

**Q.** And the IC50 (IMP-1 [26])?
**A.** > 100 µM

**Q.** What does the source list for `O=C(O)C[C@@H]1CC[C@H](NC(=O)Cc2cccs2)B(O)O1` [vaborbactam]?
**A.** IC50 (NDM-1): > 100 µM; IC50 (IMP-1 [26]): > 100 µM
